Columns and labels:
[1] = molecular target: T1, human TREX2 (residues M44-A279) (Homo sapiens, UniProt Q9BQ50); assay: TREX2 Biochemical Assay (fluorescence assay, degradation of dsDNA substrate); details: 2.5 nM TREX2, 60 nM dsDNA substrate, 25 minutes at room temperature; read-out: hTREX2 EC50
T1 construct: human TREX2 (residues M44-A279, expressed in E. coli); His-Tev (His tag with TEV protease site) (N); made in house; host or cells: E. coli
T1 sequence (Q9BQ50 44-279 isoform Q9BQ50-1): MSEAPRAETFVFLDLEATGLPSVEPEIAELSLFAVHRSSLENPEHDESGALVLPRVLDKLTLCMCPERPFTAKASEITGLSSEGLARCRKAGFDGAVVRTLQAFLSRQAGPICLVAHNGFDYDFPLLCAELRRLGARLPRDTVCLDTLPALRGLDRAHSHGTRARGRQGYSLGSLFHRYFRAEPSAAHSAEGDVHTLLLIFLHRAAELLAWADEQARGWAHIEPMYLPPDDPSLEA
Description: Degradation of the dsDNA liberates free fluorophore to produce a fluorescent signal. Specifically, 7.5 μL of N-terminally His-Tev tagged human TREX2 (residues M44-A279, expressed in E. coli and purified in house) in reaction buffer (50 mM Tris (pH 7.4), 150 mM NaCl, 2 mM DTT, 0.1 mg/mL BSA, 0.01% (v/v) Tween-20 and 100 mM MgCl2) was added to a 384-well Black ProxiPlate Plus (Perkin Elmer) which already contained compound (150 nL) at varying concentrations as a 10-point dose-response in DMSO. To this was added 7.5 μL of dsDNA substrate (Strand A: 5′ TEX615/GCT AGG CAG 3′; Strand B: 5′ CTG CCT AGC/IAbRQSp (IDT)) in reaction buffer. Final concentrations were 2.5 nM TREX2, 60 nM dsDNA substrate in reaction buffer with 1.0% DMSO (v/v). After 25 minutes at room temperature, reactions were quenched by the addition of 5 μL of stop buffer (same as reaction buffer plus 200 mM EDTA). Final concentrations in the quenched reaction mixture were […] TREX2, 45 nM DNA and 50 mM EDTA in a volume of 20 μL. After a 5-minute incubation at room temperature, plates were read in a laser sourced Envision (Perkin-Elmer), measuring fluorescence at 615 nm following excitation w/570 nm light. IC50 values were calculated by comparing the measured fluorescence at 615 nm ratio relative to control wells pre-quenched w/stop buffer (100% inhibition) and no inhibitor (0% inhibition) controls as using non-linear least square four parameter fits and either Genedata or GraphPad Prism (GraphPad Software, Inc.).

[2] = molecular target: T2, full length human TREX1 (Homo sapiens, UniProt Q9NSU2); assay: TREX1 Biochemical Assay (fluorescence assay, degradation of dsDNA substrate); details: 150 pM TREX1, 60 nM dsDNA substrate, 25 minutes at room temperature; read-out: hTREX1 EC50
T2 construct: N-terminally His-Tev tagged full length human TREX1; His-Tev (His tag with TEV protease site) (N); made in house; host or cells: E. coli
T2 sequence (Q9NSU2 1-314): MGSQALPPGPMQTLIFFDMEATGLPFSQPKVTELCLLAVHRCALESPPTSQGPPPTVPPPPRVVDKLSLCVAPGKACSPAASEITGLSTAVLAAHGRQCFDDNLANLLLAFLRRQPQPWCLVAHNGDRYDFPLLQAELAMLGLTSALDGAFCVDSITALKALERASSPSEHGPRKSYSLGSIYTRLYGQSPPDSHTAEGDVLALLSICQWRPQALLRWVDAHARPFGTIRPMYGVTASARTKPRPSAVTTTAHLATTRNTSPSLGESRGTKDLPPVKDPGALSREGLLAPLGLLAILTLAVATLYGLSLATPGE
Description: Degradation of the dsDNA liberates free fluorophore to produce a fluorescent signal. Specifically, 7.5 μL of N-terminally His-Tev tagged full length human TREX1 (expressed in E. coli and purified in house) in reaction buffer (50 mM Tris (pH 7.4), 150 mM NaCl, 2 mM DTT, 0.1 mg/mL BSA, 0.01% (v/v) Tween-20 and 100 mM MgCl2) was added to a 384-well Black ProxiPlate Plus (Perkin Elmer) which already contained compound (150 nL) at varying concentrations as a 10-point dose-response in DMSO. To this was added 7.5 μL of dsDNA substrate (Strand A: 5′ TEX615/GCT AGG CAG 3′; Strand B: 5′ CTG CCT AGC/IAbRQSp (Integrated DNA Technologies)) in reaction buffer. Final concentrations were 150 pM TREX1, 60 nM dsDNA substrate in reaction buffer with 1.0% DMSO (v/v). After 25 minutes at room temperature, reactions were quenched by the addition of 5 μL of stop buffer (same as reaction buffer plus 200 mM EDTA). Final concentrations in the quenched reaction were 112.5 pM TREX1, 45 nM DNA and 50 mM EDTA in a volume of 20 μL. After a 5-minute incubation at room temperature, plates were read in a laser sourced Envision (Perkin-Elmer), measuring fluorescence at 615 nm following excitation w/570 nm light. IC50 values were calculated by comparing the measured fluorescence at 615 nm ratio relative to control wells pre-quenched w/stop buffer (100% inhibition) and no inhibitor (0% inhibition) controls as using non-linear least square four parameter fits and either Genedata or GraphPad Prism (GraphPad Software, Inc.).

| EC50 [1] [µM] | EC50 [2] [µM] | SMILES |
| --- | --- | --- |
| 1 to 10 | 0.1 to 1 | CC(C)(C)OC(=O)Nc1cncc(CN(Cc2cccc(Cl)c2Cl)C(=O)c2cc(F)cc(F)c2)c1 [Compound 212] |
| > 100 | > 10 | O=C(c1ccc(Br)cc1Cl)N(Cc1cccnc1)Cc1cc(Cl)cc(Cl)c1 [Compound 70] |
| 10 to 100 | 0.1 to 1 | O=C(c1cccc(F)c1)N(Cc1cccnc1)Cc1cccc(F)c1Cl [Compound 137] |
| 1 to 10 | < 0.1 | COc1cccc(CN(Cc2ccc(C(=O)O)nc2)C(=O)c2cc(F)cc(F)c2)c1C [Compound 195] |
| > 100 | > 10 | O=C(CN1CCCC1)N(Cc1cccnc1)Cc1ccc(Cl)cc1Cl [Compound 91] |
| 10 to 100 | 0.1 to 1 | Cc1ccccc1CN(Cc1ccc(C(=O)O)nc1)C(=O)c1cc(F)cc(F)c1 [Compound 193] |
| > 100 | > 10 | O=C(c1ccc(O)c(Cl)c1)N(Cc1cccnc1)Cc1cc(Cl)cc(Cl)c1 [Compound 35] |
| 1 to 10 | < 0.1 | O=C(O)c1ccc(CN(Cc2ccccc2C(F)(F)F)C(=O)c2cc(F)cc(F)c2)cn1 [Compound 172] |
| > 100 | > 10 | O=C(c1cccc(F)c1)N(Cc1ccccc1)Cc1ccc(Cl)cc1Cl [Compound 96] |
| > 100 | > 10 | Cc1noc(C)c1C(=O)N(Cc1cccnc1)Cc1ccc(Cl)cc1Cl [Compound 115] |
| < 1 | < 0.1 | CC[C@@H](c1cccc(Cl)c1Cl)N(Cc1cnc(C(=O)O)c(N)c1)C(=O)c1cc(F)cc(F)c1 [Compound 236] |
| > 100 | 1 to 10 | CC(=O)Nc1ccc(CN(Cc2cccc(Cl)c2Cl)C(=O)c2cccc(F)c2)cn1 [Compound 214] |
| 10 to 100 | < 0.1 | O=C(O)c1cc(CO)c(CN(Cc2cccc(Cl)c2Cl)C(=O)c2cc(F)cc(F)c2)cn1 [Compound 206] |
| > 100 | > 10 | CC(C)(C)c1ccc(C(=O)N(Cc2cccnc2)Cc2ccc(Cl)cc2Cl)cc1 [Compound 82] |
| > 100 | > 10 | O=C(C1CCC(O)CC1)N(Cc1cccnc1)Cc1ccc(Cl)cc1Cl (centres unmarked) [Compound 86] |
| > 100 | > 10 | O=C(c1ccccc1N1CCCCC1)N(Cc1cccnc1)Cc1ccc(Cl)cc1Cl [Compound 42] |
| > 100 | > 10 | C[C@H](c1cccnc1)N(Cc1ccc(Cl)cc1Cl)C(=O)c1cccc(F)c1 (single isomer, unassigned) [Compound 153] |
| > 100 | > 10 | CC(C)(C)c1ccc(C(=O)N(Cc2cccnc2)Cc2cc(Cl)cc(Cl)c2)cc1 [Compound 61] |
| > 100 | > 10 | O=C(c1ccc(CO)cc1F)N(Cc1cccnc1)Cc1ccc(Cl)cc1Cl [Compound 84] |
| > 100 | 1 to 10 | O=C(c1ccc(F)c(F)c1F)N(Cc1cccnc1)Cc1ccc(Cl)cc1Cl [Compound 123] |
| 10 to 100 | < 0.1 | CNc1cc(CN(Cc2cccc(Cl)c2Cl)C(=O)c2cc(F)cc(F)c2)cnc1C(=O)O [Compound 240] |
| > 100 | > 10 | O=C(c1ccc(Cl)cc1O)N(Cc1cccnc1)Cc1cc(Cl)cc(Cl)c1 [Compound 45] |

| EC50 [1] [µM] | EC50 [2] [µM] | SMILES |
| --- | --- | --- |
| > 100 | > 10 | O=C(c1cc(Cl)c(O)c(Cl)c1)N(Cc1cccnc1)Cc1cc(Cl)cc(Cl)c1 [Compound 49] |
| > 100 | > 10 | O=C(c1ccc(Br)cc1)N(Cc1cccnc1)Cc1cc(Cl)cc(Cl)c1 [Compound 26] |
| > 100 | > 10 | O=C(c1ccc(Oc2ccc(Cl)cc2)cc1)N(Cc1cccnc1)Cc1cc(Cl)cc(Cl)c1 [Compound 59] |
| > 100 | > 10 | O=C(c1ccccc1Oc1ccccc1)N(Cc1cccnc1)Cc1ccc(Cl)cc1Cl [Compound 44] |
| > 100 | > 10 | O=C(c1cccc(F)c1)N(Cc1cccnc1)Cc1cc(Cl)cc(Cl)c1 [Compound 23] |
| > 100 | > 10 | Cc1ncc(CN(Cc2ccc(Cl)cc2Cl)C(=O)c2cccc(F)c2)cn1 [Compound 108] |
| > 100 | > 10 | O=C(C1CC1)N(Cc1cccnc1)Cc1ccc(Cl)cc1Cl [Compound 81] |
| 10 to 100 | 1 to 10 | N#CCC[C@H](c1ccccc1Cl)N(Cc1cccnc1)C(=O)c1cc(F)cc(F)c1 [Compound 178] |
| 10 to 100 | 1 to 10 | COC(=O)CC[C@H](c1ccccc1Cl)N(Cc1cccnc1)C(=O)c1cc(F)cc(F)c1 [Compound 241] |
| > 100 | > 10 | CC(C)Oc1ccc(C(=O)N(Cc2cccnc2)Cc2cc(Cl)cc(Cl)c2)cc1 [Compound 54] |
| > 100 | > 10 | O=C(c1ccc(Oc2ccccc2)cc1)N(Cc1cccnc1)Cc1cc(Cl)cc(Cl)c1 [Compound 71] |
| > 100 | > 10 | O=C(c1ccc(CO)cc1F)N(Cc1cccnc1)Cc1cc(Cl)cc(Cl)c1 [Compound 60] |
| 10 to 100 | < 0.1 | CC[C@@H](c1cccc(Cl)c1OC)N(Cc1cnc(C(=O)O)c(N)c1)C(=O)c1cc(F)cc(F)c1 [Compound 250] |
| > 100 | > 10 | O=C(c1ccc(-c2ccccc2)cc1)N(Cc1cccnc1)Cc1cc(Cl)cc(Cl)c1 [Compound 58] |
| > 100 | > 10 | O=C(/C=C/c1ccco1)N(Cc1cccnc1)Cc1ccc(Cl)cc1Cl [Compound 79] |
| > 100 | > 10 | O=C(c1ccccc1)N(Cc1cccnc1)Cc1cc(Cl)cc(Cl)c1 [Compound 1, N-[(3,5-dichlorophenyl)methyl]-N-[(pyridin-3-yl)methyl]benzamide] |
| 10 to 100 | 0.1 to 1 | N#CCC[C@@H](c1ccccc1Cl)N(Cc1cccnc1)C(=O)c1cc(F)cc(F)c1 [Compound 177] |
| > 100 | > 10 | O=C(c1ccc(Oc2ccc(F)cc2)cc1)N(Cc1cccnc1)Cc1cc(Cl)cc(Cl)c1 [Compound 74] |
| 10 to 100 | < 0.1 | CN(C)c1cc(C(=O)O)ncc1CN(Cc1cccc(Cl)c1Cl)C(=O)c1cc(F)cc(F)c1 [Compound 209] |
| > 100 | > 10 | COC(=O)c1ccc(CN(Cc2ccc(Cl)cc2Cl)C(=O)c2cccc(F)c2)cn1 [Compound 141, methyl 5-({N-[(2,4-dichlorophenyl)methyl]-1-(3-fluorophenyl)formamido}methyl)pyridine-2-carboxylate] |
| > 100 | > 10 | Cn1cc(CN(Cc2ccc(Cl)cc2Cl)C(=O)c2cccc(F)c2)cn1 [Compound 112] |

— patent publication US20230233541A1, “SUBSTITUTED BENZAMIDES AS MODULATORS OF TREX1” (Constellation Pharmaceuticals, Inc., priority 2020, published 2023)
